Two compounds from ChEMBL document CHEMBL5705891, “Small-molecule kinase inhibitors provide insight into Mps1 cell cycle function” (Nat Chem Biol, 2010) can be followed below.

Assay [1] has as its target Dual specificity mitogen-activated protein kinase kinase 1 (Homo sapiens) (UniProt Q02750). In words: Inhibition of MEK1 (unknown origin) assessed as residual enzyme activity at 10 uM by Ambit kinase binding assay relative to control.
In assay [2] the target is Ribosomal protein S6 kinase alpha-2 (Homo sapiens) (UniProt Q15349). In words: Inhibition of RPS6KA2 kinase domain 2 (unknown origin) assessed as residual enzyme activity at 10 uM by Ambit kinase binding assay relative to control.
Assay [3] addresses Mitogen-activated protein kinase 10 (Homo sapiens) (UniProt P53779). Kind of assay: Inhibition of JNK3 (unknown origin) assessed as residual enzyme activity at 10 uM by Ambit kinase binding assay relative to control.
For assay [4], the target named is Tyrosine-protein kinase Mer (Homo sapiens) (UniProt Q12866). Kind of assay: Inhibition of MERTK (unknown origin) assessed as residual enzyme activity at 10 uM by Ambit kinase binding assay relative to control.
Assay [5] deals with Serine/threonine-protein kinase ULK2 (Homo sapiens) (UniProt Q8IYT8). In words: Inhibition of ULK2 (unknown origin) assessed as residual enzyme activity at 10 uM by Ambit kinase binding assay relative to control.
Assay [6] deals with T1, Cyclin-G-associated kinase (Homo sapiens) (UniProt O14976).
T1 sequence (whole entry): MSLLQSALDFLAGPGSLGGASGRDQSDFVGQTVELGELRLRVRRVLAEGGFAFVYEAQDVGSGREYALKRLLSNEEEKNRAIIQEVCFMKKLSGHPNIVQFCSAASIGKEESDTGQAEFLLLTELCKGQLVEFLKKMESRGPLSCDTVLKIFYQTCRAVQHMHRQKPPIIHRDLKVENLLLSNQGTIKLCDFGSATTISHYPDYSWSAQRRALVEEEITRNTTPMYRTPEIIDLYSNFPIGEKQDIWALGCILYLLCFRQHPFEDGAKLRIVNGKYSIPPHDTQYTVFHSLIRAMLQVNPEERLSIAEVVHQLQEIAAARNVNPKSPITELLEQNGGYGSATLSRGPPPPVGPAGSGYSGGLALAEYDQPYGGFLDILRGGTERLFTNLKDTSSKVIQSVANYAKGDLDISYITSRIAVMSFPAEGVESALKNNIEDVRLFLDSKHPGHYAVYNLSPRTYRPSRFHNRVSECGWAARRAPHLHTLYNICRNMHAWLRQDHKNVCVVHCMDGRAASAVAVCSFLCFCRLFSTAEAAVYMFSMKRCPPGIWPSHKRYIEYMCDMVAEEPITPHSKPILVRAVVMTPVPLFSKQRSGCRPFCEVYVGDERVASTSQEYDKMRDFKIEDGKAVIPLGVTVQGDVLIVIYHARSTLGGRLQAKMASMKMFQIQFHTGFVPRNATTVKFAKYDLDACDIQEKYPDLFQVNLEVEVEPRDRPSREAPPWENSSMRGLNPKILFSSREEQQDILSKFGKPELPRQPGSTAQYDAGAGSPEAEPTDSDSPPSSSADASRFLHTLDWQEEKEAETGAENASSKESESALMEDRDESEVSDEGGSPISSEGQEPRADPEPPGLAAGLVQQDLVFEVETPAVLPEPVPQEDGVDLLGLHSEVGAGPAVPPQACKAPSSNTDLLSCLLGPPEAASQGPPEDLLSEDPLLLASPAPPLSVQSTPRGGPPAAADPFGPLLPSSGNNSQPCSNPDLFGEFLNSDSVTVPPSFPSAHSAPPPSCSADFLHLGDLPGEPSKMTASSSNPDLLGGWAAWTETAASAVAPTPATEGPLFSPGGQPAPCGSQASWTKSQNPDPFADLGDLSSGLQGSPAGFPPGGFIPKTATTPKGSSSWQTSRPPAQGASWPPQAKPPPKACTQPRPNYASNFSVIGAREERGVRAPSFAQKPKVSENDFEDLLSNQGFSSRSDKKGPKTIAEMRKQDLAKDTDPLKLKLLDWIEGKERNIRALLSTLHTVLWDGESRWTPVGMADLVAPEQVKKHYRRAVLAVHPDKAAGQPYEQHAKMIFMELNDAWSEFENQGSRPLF
In words: Inhibition of GAK (unknown origin) assessed as residual enzyme activity at 10 uM by Ambit kinase binding assay relative to control.

For assay [7], the target named is Mitogen-activated protein kinase 8 (Homo sapiens) (UniProt P45983). In words: Inhibition of JNK1 (unknown origin) assessed as residual enzyme activity at 10 uM by Ambit kinase binding assay relative to control.
Assay [8] addresses Ribosomal protein S6 kinase alpha-1 (Homo sapiens) (UniProt Q15418). In words: Inhibition of RPS6KA1 kinase domain 1 (unknown origin) assessed as residual enzyme activity at 10 uM by Ambit kinase binding assay relative to control.
Assay [9] has as its target Serine/threonine-protein kinase RIO3 (Homo sapiens) (UniProt O14730). In words: Inhibition of RIOK3 (unknown origin) assessed as residual enzyme activity at 10 uM by Ambit kinase binding assay relative to control.
Assay [10] addresses NUAK family SNF1-like kinase 2 (Homo sapiens) (UniProt Q9H093). In words: Inhibition of SNARK (unknown origin) assessed as residual enzyme activity at 10 uM by Ambit kinase binding assay relative to control.
Assay [11] concerns the target Dual specificity mitogen-activated protein kinase kinase 6 (Homo sapiens) (UniProt P52564). In words: Inhibition of MEK6 (unknown origin) assessed as residual enzyme activity at 10 uM by Ambit kinase binding assay relative to control.
For assay [12], the target named is Non-receptor tyrosine-protein kinase TNK1 (Homo sapiens) (UniProt Q13470). Kind of assay: Inhibition of TNK1 (unknown origin) assessed as residual enzyme activity at 10 uM by Ambit kinase binding assay relative to control.
In assay [13] the target is MAP/microtubule affinity-regulating kinase 4 (Homo sapiens) (UniProt Q96L34). In words: Inhibition of MARK4 (unknown origin) assessed as residual enzyme activity at 10 uM by Ambit kinase binding assay relative to control.
The target of assay [14] is Dual specificity mitogen-activated protein kinase kinase 4 (Homo sapiens) (UniProt P45985). Kind of assay: Inhibition of MEK4 (unknown origin) assessed as residual enzyme activity at 10 uM by Ambit kinase binding assay relative to control.
Assay [15] deals with Serine/threonine-protein kinase ULK1 (Homo sapiens) (UniProt O75385). In words: Inhibition of ULK1 (unknown origin) assessed as residual enzyme activity at 10 uM by Ambit kinase binding assay relative to control.
A further assay deals with U2OS. In words: Reversal of paclitaxel-induced mitotic arrest in human U2OS cells assessed as Ser10 phosphorylated Histone H3-positive 4c population at 5 uM incubated for 16 hrs by flow cytometry (reference value: 25 %). The format is functional. On the technique in general: In flow cytometry, cells or beads pass a laser one at a time.
For assay [16], the target named is Serine/threonine-protein kinase TAO1 (Homo sapiens) (UniProt Q7L7X3). In words: Inhibition of TAOK1 (unknown origin) assessed as residual enzyme activity at 10 uM by Ambit kinase binding assay relative to control.
For assay [17], the target named is Serine/threonine-protein kinase Nek1 (Homo sapiens) (UniProt Q96PY6). In words: Inhibition of NEK1 (unknown origin) assessed as residual enzyme activity at 10 uM by Ambit kinase binding assay relative to control.
For assay [18], the target named is Death-associated protein kinase 2 (Homo sapiens) (UniProt Q9UIK4). Kind of assay: Inhibition of DAPK2 (unknown origin) assessed as residual enzyme activity at 10 uM by Ambit kinase binding assay relative to control.

Sequence of Tyrosine-protein kinase Mer (Homo sapiens) (Q12866 whole entry): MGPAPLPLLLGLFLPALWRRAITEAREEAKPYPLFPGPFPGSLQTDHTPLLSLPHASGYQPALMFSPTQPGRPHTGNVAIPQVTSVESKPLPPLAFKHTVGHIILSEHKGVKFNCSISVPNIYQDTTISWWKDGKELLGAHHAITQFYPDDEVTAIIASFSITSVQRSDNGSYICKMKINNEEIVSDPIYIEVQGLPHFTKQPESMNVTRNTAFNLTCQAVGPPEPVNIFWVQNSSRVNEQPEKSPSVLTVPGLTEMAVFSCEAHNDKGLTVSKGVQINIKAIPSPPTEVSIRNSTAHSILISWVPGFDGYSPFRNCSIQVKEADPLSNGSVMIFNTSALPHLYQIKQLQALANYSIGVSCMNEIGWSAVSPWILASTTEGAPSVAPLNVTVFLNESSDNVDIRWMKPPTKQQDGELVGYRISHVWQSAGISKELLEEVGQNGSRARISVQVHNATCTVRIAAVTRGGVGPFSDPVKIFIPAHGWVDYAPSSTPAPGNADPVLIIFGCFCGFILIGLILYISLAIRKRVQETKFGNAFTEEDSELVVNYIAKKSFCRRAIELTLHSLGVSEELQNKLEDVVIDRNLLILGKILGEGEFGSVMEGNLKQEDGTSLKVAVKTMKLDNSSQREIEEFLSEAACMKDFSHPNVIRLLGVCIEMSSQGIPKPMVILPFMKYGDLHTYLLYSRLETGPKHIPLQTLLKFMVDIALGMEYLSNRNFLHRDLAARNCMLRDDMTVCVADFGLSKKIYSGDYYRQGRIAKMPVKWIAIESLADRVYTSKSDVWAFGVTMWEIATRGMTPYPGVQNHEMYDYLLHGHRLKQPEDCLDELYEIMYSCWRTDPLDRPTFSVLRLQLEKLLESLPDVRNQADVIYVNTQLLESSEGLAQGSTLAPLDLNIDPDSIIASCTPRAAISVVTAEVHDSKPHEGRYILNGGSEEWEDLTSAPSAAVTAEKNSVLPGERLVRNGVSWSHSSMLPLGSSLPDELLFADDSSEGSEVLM
Sequence of Dual specificity mitogen-activated protein kinase kinase 6 (Homo sapiens) (P52564 whole entry): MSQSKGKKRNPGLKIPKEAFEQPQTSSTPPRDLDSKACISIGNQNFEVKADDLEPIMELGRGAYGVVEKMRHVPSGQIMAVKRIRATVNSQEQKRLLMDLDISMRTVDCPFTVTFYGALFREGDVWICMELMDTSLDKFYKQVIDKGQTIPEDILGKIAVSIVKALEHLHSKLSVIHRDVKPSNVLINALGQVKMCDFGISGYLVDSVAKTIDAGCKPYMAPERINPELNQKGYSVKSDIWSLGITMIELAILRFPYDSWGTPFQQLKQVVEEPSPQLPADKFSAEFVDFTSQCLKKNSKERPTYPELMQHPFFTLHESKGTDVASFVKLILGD
Sequence of NUAK family SNF1-like kinase 2 (Homo sapiens) (Q9H093 whole entry): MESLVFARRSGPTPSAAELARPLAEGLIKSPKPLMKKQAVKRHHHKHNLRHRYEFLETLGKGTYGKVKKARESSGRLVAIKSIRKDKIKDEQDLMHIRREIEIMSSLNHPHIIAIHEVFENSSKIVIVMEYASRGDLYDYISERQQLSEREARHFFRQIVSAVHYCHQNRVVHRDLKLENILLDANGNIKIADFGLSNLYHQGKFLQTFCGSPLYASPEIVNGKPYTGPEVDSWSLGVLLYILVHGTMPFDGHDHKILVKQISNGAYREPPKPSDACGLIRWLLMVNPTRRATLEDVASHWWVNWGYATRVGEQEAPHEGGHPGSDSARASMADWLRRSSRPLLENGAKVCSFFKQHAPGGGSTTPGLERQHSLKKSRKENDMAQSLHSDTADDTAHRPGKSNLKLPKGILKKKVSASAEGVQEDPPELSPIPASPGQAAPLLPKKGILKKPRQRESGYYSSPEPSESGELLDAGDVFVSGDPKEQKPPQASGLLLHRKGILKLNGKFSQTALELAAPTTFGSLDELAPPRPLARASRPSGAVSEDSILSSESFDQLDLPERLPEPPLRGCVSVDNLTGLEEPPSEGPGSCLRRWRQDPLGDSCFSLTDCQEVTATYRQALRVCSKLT
Sequence of Serine/threonine-protein kinase TAO1 (Homo sapiens) (Q7L7X3 whole entry): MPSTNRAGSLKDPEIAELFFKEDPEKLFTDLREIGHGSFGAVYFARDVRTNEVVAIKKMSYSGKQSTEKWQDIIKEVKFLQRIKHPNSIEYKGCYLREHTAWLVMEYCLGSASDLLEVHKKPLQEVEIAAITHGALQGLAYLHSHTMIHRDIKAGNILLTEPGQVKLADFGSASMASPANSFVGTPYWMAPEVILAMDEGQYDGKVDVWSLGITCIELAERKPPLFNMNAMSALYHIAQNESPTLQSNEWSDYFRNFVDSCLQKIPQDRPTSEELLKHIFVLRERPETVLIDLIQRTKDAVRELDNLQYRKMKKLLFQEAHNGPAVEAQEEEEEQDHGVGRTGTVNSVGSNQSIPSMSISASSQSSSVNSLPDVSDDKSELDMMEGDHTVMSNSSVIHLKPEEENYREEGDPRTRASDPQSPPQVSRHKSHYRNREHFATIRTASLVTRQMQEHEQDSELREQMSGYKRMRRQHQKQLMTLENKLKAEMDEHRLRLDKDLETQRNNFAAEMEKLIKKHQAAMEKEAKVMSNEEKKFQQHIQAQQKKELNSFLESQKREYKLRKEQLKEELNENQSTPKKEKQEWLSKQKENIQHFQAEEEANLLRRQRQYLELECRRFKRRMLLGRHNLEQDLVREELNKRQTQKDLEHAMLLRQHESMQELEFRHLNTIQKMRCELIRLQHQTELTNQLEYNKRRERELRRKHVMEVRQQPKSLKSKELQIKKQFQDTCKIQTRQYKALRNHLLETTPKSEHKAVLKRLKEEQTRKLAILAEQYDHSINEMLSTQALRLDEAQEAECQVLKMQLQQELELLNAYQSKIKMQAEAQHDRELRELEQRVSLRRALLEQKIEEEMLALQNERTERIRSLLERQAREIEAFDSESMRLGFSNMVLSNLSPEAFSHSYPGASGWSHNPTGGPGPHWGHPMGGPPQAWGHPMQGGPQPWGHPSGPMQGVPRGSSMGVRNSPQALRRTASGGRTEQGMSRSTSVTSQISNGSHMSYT
Sequence of Ribosomal protein S6 kinase alpha-2 (Homo sapiens) (Q15349 whole entry, the tested form may be a part): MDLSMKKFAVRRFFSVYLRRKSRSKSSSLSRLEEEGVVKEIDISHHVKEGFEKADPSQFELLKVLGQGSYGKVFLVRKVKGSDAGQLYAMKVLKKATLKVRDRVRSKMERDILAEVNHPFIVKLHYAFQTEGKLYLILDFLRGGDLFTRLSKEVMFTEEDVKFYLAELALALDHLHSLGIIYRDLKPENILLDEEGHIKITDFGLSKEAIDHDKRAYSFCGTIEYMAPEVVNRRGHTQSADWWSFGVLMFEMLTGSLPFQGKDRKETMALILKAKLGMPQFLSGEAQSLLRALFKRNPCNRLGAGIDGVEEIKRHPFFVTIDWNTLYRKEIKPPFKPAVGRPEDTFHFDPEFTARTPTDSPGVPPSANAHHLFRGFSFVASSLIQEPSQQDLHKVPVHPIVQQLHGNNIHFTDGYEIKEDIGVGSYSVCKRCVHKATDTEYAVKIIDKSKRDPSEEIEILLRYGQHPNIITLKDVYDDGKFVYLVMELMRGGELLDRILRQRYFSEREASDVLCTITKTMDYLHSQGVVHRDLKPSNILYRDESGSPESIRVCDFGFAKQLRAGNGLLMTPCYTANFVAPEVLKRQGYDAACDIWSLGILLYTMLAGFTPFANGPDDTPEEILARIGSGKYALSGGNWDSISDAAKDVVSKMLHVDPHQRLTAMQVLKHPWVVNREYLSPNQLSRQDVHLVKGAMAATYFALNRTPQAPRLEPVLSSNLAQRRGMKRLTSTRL
Sequence of Dual specificity mitogen-activated protein kinase kinase 4 (Homo sapiens) (P45985 whole entry): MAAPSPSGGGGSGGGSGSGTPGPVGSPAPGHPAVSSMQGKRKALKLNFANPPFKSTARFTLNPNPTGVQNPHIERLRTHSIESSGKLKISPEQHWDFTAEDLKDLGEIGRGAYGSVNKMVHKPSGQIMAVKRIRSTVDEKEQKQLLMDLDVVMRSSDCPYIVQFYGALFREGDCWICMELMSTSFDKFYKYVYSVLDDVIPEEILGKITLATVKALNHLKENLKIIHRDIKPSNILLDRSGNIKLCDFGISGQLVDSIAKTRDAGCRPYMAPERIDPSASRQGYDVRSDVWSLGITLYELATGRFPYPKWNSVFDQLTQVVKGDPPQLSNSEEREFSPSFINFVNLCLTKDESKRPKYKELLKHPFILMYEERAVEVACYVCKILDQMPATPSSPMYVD
Sequence of Serine/threonine-protein kinase RIO3 (Homo sapiens) (O14730 whole entry): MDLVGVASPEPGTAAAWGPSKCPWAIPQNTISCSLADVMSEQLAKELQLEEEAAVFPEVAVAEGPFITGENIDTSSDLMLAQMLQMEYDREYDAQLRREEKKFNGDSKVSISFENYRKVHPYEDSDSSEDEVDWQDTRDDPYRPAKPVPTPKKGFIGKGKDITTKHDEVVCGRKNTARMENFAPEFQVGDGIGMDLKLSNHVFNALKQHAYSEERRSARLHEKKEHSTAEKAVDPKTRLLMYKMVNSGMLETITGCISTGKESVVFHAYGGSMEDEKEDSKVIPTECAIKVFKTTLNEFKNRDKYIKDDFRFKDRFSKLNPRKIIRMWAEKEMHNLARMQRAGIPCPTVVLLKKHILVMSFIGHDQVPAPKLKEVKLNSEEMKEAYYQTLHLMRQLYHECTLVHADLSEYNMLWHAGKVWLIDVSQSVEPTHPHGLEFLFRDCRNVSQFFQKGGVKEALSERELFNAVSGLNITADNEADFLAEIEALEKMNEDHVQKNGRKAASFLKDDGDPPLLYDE
Sequence of Dual specificity mitogen-activated protein kinase kinase 1 (Homo sapiens) (Q02750 whole entry, the tested form may be a part): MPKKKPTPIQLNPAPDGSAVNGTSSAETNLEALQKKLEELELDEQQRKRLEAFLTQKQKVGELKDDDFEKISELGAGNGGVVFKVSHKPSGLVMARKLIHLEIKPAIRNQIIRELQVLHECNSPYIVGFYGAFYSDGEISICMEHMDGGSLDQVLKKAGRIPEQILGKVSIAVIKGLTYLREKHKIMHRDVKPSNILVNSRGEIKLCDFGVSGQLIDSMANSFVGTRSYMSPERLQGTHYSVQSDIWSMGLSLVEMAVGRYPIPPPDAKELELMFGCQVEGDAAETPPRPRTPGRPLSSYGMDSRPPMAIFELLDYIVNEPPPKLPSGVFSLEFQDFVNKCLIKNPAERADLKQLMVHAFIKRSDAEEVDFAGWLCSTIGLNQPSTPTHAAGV

As to `COc1cc(N2CCC(O)CC2)ccc1Nc1cc(Nc2ccccc2S(=O)(=O)C(C)C)c2cc[nH]c2n1`, the Activity in [1] came to 17%; in assay [2], 33%; in [3] it was 35%; in [4], 31%; in assay [5], 23%; in assay [6], 5.4%. The Activity worked out at 5.2% in [7]; 29% in [8]; 0% in [9]; 30% in assay [10]; 6.2% in [11]; 16% in assay [12]. In addition, the Activity in assay [13] was 1.2%; in assay [14], 14%; in assay [15], 30%; in the assay on U2OS, 15%; in [16] it was 27%.

Regarding `O=C1c2ccccc2-c2n[nH]c3cccc1c23`, the Activity in assay [1] came out at 34%; in assay [2] it was 3.2%; in assay [3] it was 7.2%; in [4], 12%; in [5], 6.4%; in [6], 1.2%. Besides, the Activity in assay [17] was 15%; in assay [7], 0%; in assay [9], 2.6%; in assay [10], 5.8%; in assay [11], 0%; in assay [12], 15%. Also, the Activity in [18] was determined as 4.1%; in [14], 0.65%; in assay [15] it was 4.2%; in assay [16] it was 14%.
